According to ChEMBL document CHEMBL5512674, “Novel Acyl Thiourea-Based Hydrophobic Tagging Degraders Exert Potent Anti-Influenza Activity through Two Distinct Endonuclease Polymerase Acidic-Targeted Degradation Pathways” (J Med Chem, 2024):
The source made the active and inactive calls. No cut-off for these calls is given here.

Legend:
[1] = molecular target: T1, von Hippel-Lindau disease tumor suppressor/Polymerase acidic protein (Influenza A virus (A/Puerto Rico/8/1934(H1N1))) (UniProt P03433+P40337); experiment: PROTAC activity at Influenza A virus A/WSN/33(H1N1) flag tagged Polymerase acidic protein/VHL (unknown origin) expressed in HEK293T cells assessed as degradation of PA expression at 5 uM incubated for 24 hrs by Western blotting analysis; format: cell-based
[2] = Stability in human plasma assessed as compound remaining by LC-MS/MS analysis; format: ADME, cell-free
[3] = Stability in human plasma assessed as compound remaining measured after 5 mins by LC-MS/MS analysis; format: ADME, cell-free; details: read-out: Stability
[4] = Stability in human plasma assessed as compound remaining measured after 15 mins by LC-MS/MS analysis; format: ADME, cell-free; details: 0.25 h, BLD = below limit of detection
[5] = Stability in human plasma assessed as compound remaining measured after 30 mins by LC-MS/MS analysis; format: ADME, cell-free; details: 0.5 h, BLD = below limit of detection
[6] = Stability in human plasma assessed as compound remaining measured after 60 mins by LC-MS/MS analysis; format: ADME, cell-free; details: read-out: Stability
[7] = Stability in human plasma assessed as compound remaining measured after 120 mins by LC-MS/MS analysis; format: ADME, cell-free; details: 2 h, BLD = below limit of detection
[8] = Half life in human plasma by LC-MS/MS analysis; format: ADME, cell-free
Influenza A virus [9] = experiment: Anti-influenza activity against Influenza A virus A/WSN/33(H1N1) infected in HEK293T cells assessed as reduction in virus-induced cytopathic effect incubated for 48 hrs by CCK-8 assay; format: functional, organism-based; details: HEK-293T
[10] = Cytotoxicity against human HEK293T cells assessed as reduction in cell viability incubated for 48 hrs by CCK-8 assay; format: toxicity, cell-based, HEK-293T
[11] = Selectivity index, ratio of CC50 for cytotoxicity against human HEK293T cells to EC50 for anti-influenza activity against Influenza A virus A/WSN/33(H1N1) infected in HEK293T cells assessed as reduction in virus-induced cytopathic effect; format: toxicity, cell-based; details: read-out: Ratio CC50/EC50
[12] = molecular target: T2, von Hippel-Lindau disease tumor suppressor/Polymerase basic protein 1 (Influenza A virus (strain A/Puerto Rico/8/1934 H1N1)) (UniProt P03431+P40337); experiment: PROTAC activity at Influenza A virus A/WSN/33(H1N1) flag tagged Polymerase basic protein 1/VHL (unknown origin) expressed in HEK293T cells assessed as degradation of PB1 expression at 1 ug/ml incubated for 24 hrs by Western blotting analysis; format: cell-based; details: dose 1.0 µg/ml
[13] = molecular target: T2, von Hippel-Lindau disease tumor suppressor/Polymerase basic protein 1 (Influenza A virus (strain A/Puerto Rico/8/1934 H1N1)); experiment: PROTAC activity at Influenza A virus A/WSN/33(H1N1) flag tagged Polymerase basic protein 1/VHL (unknown origin) expressed in HEK293T cells assessed as degradation of PB1 expression at 10 ug/ml incubated for 24 hrs by Western blotting analysis; format: cell-based; details: dose 10.0 µg/ml
[14] = molecular target: T3, von Hippel-Lindau disease tumor suppressor/Polymerase basic protein 2 (Influenza A virus (strain A/Puerto Rico/8/1934 H1N1)) (UniProt P40337+P03428); experiment: PROTAC activity at Influenza A virus A/WSN/33(H1N1) flag tagged Polymerase basic protein 2/VHL (unknown origin) expressed in HEK293T cells assessed as degradation of PB2 expression at 1 ug/ml incubated for 24 hrs by Western blotting analysis; format: cell-based; details: dose 1.0 µg/ml
[15] = molecular target: T3, von Hippel-Lindau disease tumor suppressor/Polymerase basic protein 2 (Influenza A virus (strain A/Puerto Rico/8/1934 H1N1)); experiment: PROTAC activity at Influenza A virus A/WSN/33(H1N1) flag tagged Polymerase basic protein 2/VHL (unknown origin) expressed in HEK293T cells assessed as degradation of PB2 expression at 10 ug/ml incubated for 24 hrs by Western blotting analysis; format: cell-based; details: dose 10.0 µg/ml
[16] = molecular target: T1, von Hippel-Lindau disease tumor suppressor/Polymerase acidic protein (Influenza A virus (A/Puerto Rico/8/1934(H1N1))); experiment: PROTAC activity at Influenza A virus A/WSN/33(H1N1) flag tagged Polymerase acidic protein/VHL (unknown origin) expressed in HEK293T cells assessed as degradation of PA expression at 10 uM incubated for 24 hrs by Western blotting analysis; format: cell-based
Influenza B virus [17] = experiment: Anti-influenza activity against Influenza B virus Yamagata/16/88 infected in HEK293T cells assessed as reduction in virus-induced cytopathic effect incubated for 48 hrs by CCK-8 assay; format: functional, organism-based; details: Yamagata/16/88, HEK-293T
Influenza B virus [18] = experiment: Anti-influenza activity against Influenza B virus Victoria/2/87 infected in HEK293T cells assessed as reduction in virus-induced cytopathic effect incubated for 48 hrs by CCK-8 assay; format: functional, organism-based; details: Victoria/2/87, HEK-293T
Influenza A virus [19] = experiment: Anti-influenza activity against Influenza A virus H3N2 infected in HEK293T cells assessed as reduction in virus-induced cytopathic effect incubated for 48 hrs by CCK-8 assay; format: functional, organism-based; details: H3N2, HEK-293T
[20] = Hepatic extraction ratio in mouse liver microsomes preincubated for 5 mins followed by NADPH addition and measured for 45 mins by LC-MS analysis; format: ADME, Microsome; details: time 50 min, read-out: ERH
[21] = Hepatic extraction ratio in dog liver microsomes preincubated for 5 mins followed by NADPH addition and measured for 45 mins by LC-MS analysis; format: ADME, Canis lupus familiaris, Microsome; details: time 50 min, read-out: ERH
[22] = Hepatic extraction ratio in human liver microsomes preincubated for 5 mins followed by NADPH addition and measured for 45 mins by LC-MS analysis; format: ADME, Microsome; details: time 50 min, read-out: ERH

T2 sequence (P03431 whole entry, looked up): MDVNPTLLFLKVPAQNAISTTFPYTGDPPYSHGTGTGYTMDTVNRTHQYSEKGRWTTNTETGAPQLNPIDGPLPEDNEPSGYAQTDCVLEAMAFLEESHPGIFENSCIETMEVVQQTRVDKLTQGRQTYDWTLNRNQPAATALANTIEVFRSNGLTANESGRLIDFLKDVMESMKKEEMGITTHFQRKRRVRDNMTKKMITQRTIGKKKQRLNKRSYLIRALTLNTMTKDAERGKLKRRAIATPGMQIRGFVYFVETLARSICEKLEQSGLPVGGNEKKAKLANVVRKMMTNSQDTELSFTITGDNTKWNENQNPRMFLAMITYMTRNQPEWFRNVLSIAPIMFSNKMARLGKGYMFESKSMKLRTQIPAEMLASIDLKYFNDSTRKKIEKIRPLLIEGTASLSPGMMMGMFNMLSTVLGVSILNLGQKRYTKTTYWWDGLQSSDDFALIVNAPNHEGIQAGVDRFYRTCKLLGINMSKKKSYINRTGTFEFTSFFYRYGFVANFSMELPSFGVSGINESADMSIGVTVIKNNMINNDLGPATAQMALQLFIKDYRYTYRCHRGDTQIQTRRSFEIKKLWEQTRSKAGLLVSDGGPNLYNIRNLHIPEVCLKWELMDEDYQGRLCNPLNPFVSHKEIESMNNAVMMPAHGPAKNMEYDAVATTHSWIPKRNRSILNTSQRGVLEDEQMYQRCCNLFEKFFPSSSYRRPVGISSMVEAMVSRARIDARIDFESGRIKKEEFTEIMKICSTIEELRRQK
T2 sequence (P40337 whole entry, looked up): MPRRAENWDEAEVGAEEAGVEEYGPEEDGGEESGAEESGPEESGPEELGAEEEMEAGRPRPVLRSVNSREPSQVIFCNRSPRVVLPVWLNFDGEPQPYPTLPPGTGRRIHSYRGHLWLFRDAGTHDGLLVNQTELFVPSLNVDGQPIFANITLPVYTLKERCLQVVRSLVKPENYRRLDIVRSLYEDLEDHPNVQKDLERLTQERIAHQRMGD
T3 sequence (P03428 whole entry, looked up): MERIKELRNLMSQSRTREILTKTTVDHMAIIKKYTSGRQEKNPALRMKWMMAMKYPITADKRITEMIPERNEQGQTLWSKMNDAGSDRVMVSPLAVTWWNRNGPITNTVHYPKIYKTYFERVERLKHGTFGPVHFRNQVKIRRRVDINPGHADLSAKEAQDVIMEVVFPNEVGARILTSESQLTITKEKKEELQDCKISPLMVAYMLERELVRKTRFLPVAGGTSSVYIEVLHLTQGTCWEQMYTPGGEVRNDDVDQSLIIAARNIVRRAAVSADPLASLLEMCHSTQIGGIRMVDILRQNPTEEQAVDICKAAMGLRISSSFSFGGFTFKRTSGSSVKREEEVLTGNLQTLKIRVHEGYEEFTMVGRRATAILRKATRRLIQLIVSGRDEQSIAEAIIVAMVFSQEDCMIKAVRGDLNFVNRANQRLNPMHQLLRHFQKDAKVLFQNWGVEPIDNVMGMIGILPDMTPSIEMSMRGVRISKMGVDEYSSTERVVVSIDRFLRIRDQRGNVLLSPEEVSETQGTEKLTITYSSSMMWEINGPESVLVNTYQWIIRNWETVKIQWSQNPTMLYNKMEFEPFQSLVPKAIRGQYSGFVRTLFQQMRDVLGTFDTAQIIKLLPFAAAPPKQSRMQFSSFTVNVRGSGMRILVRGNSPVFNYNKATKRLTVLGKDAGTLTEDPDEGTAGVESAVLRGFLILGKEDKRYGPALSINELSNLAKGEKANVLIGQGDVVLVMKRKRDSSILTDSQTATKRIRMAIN
T3 sequence (P40337 whole entry, looked up): as the sequence (P40337 whole entry, looked up) above

Row | SMILES | EC50 (Influenza A virus [9]) | CC50 at 48 h [10] | selectivity ratio [11] | Activity [12] | Activity [13] | Activity [14] | Activity [15] | also measured
1 | CCCCCCCCNC(=O)[C@H](CCCCNC(=O)OC(C)(C)C)NC(=O)OC(C)(C)C | – | – | – | – | – | – | – | Activity [1]: inactive
2 | CCN(CC)CCOC(=O)c1ccc(N)cc1 [PROCAINE] | – | – | – | – | – | – | – | Stability [2]: 100%; remaining at 5 min [3]: 4.49%; Stability [4]: Bld; Stability [5]: Bld; remaining at 1 h [6]: 0.1%; Stability [7]: Bld; half-life [8]: 1.12 min
3 | CC(C)(C)OC(=O)N[C@@H](Cc1c[nH]c2ccccc12)C(=O)NCCCCCCCCCC(=O)Nc1ccc(NC(=S)NC(=O)c2ccc(C(C)(C)C)cc2)cc1 | 0.064 µM | > 100 µM | > 1560 | inactive | inactive | inactive | inactive | Activity [16]: Active
4 | CC(C)(C)c1ccc(C(=O)NC(=S)Nc2ccc(NC(=O)CCCCCCCCN)cc2)cc1 | 0.365 µM | 6.47 µM | 17.7 | – | – | – | – | –
5 | CC(C)(C)c1ccc(C(=O)NC(=S)Nc2ccc(NC(=O)CCCCCCCN)cc2)cc1 | > 43 µM | – | – | – | – | – | – | –
6 | CC(C)(C)OC(=O)N[C@@H](Cc1c[nH]c2ccccc12)C(=O)NCCCC(=O)Nc1ccc(NC(=S)NC(=O)c2ccc(C(C)(C)C)cc2)cc1 | 0.572 µM | 95.4 µM | 167 | inactive | inactive | inactive | inactive | –
7 | CC(C)(C)OC(=O)NCCCC[C@H](NC(=O)OC(C)(C)C)C(=O)NCCCCCCCCCCC(=O)Nc1ccc(NC(=S)NC(=O)c2ccc(C(C)(C)C)cc2)cc1 | 0.186 µM | 74.5 µM | 400 | inactive | inactive | inactive | inactive | Activity [16]: Active
8 | CC(C)(C)c1ccc(C(=O)NC(=S)Nc2ccc(NC(=O)CCCCCCCNC(=O)[C@@H](N)CC(N)=O)cc2)cc1 | – | – | – | – | – | – | – | Activity [1]: inactive
9 | CC(C)(C)OC(=O)N[C@@H](Cc1c[nH]c2ccccc12)C(=O)NCCCCCCC(=O)Nc1ccc(NC(=S)NC(=O)c2ccc(C(C)(C)C)cc2)cc1 | 0.169 µM | > 100 µM | > 592 | inactive | inactive | inactive | inactive | –
10 | CC(C)(C)OC(=O)NCCCC[C@H](NC(=O)OC(C)(C)C)C(=O)NCCCCCCCCCC(=O)Nc1ccc(NC(=S)NC(=O)c2ccc(C(C)(C)C)cc2)cc1 | 0.045 µM | > 100 µM | > 2220 | inactive | inactive | inactive | inactive | Activity [16]: Active
11 | CC(C)(C)OC(=O)N[C@@H](Cc1c[nH]c2ccccc12)C(=O)NCCCCCCCC(=O)Nc1ccc(NC(=S)NC(=O)c2ccc(C(C)(C)C)cc2)cc1 | 0.043 µM | > 100 µM | > 2330 | inactive | inactive | inactive | inactive | –
12 | CC(C)(C)OC(=O)NCCCC[C@H](NC(=O)OC(C)(C)C)C(=O)NCCOCCOCC(=O)Nc1ccc(NC(=S)NC(=O)c2ccc(C(C)(C)C)cc2)cc1 | > 25 µM | – | – | – | – | – | – | –
13 | CC(C)(C)OC(=O)NCCCC[C@H](NC(=O)OC(C)(C)C)C(=O)NCCCCCCCCCCCC(=O)Nc1ccc(NC(=S)NC(=O)c2ccc(C(C)(C)C)cc2)cc1 | 0.534 µM | > 100 µM | > 187 | inactive | inactive | inactive | inactive | –
14 | CC(C)(C)OC(=O)NCCCC[C@H](NC(=O)OC(C)(C)C)C(=O)NCCCCCCC(=O)Nc1ccc(NC(=S)NC(=O)c2ccc(C(C)(C)C)cc2)cc1 | 0.075 µM | > 100 µM | > 1330 | inactive | inactive | inactive | inactive | Activity [16]: Active
15 | NC(=O)c1nc(F)cnc1O [FAVIPIRAVIR] | 8.29 µM | > 100 µM | > 18.1 | – | – | – | – | EC50 (Influenza B virus [17]): > 10 µM; EC50 (Influenza B virus [18]): > 10 µM; EC50 (Influenza A virus [19]): > 10 µM
16 | CC(C)(C)OC(=O)N[C@@H](Cc1c[nH]c2ccccc12)C(=O)Nc1ccc(NC(=S)NC(=O)c2ccc(C(C)(C)C)cc2)cc1 | 0.407 µM | > 100 µM | > 246 | inactive | inactive | inactive | inactive | –
17 | CC(C)(C)c1ccc(C(=O)NC(=S)Nc2ccc(NC(=O)CCCCCCCNC(=O)[C@@H](N)Cc3cnc[nH]3)cc2)cc1 | – | – | – | – | – | – | – | Activity [1]: inactive
18 | CC(C)(C)OC(=O)/N=C(\NCCC[C@H](NC(=O)OC(C)(C)C)C(=O)NCCCCCCCC(=O)Nc1ccc(NC(=S)NC(=O)c2ccc(C(C)(C)C)cc2)cc1)NC(=O)OC(C)(C)C | 0.374 µM | > 100 µM | > 267 | inactive | inactive | inactive | inactive | –
19 | CC(C)(C)OC(=O)N[C@@H](Cc1c[nH]c2ccccc12)C(=O)NCCCCCCCCCCC(=O)Nc1ccc(NC(=S)NC(=O)c2ccc(C(C)(C)C)cc2)cc1 | 0.383 µM | 41.8 µM | 109 | inactive | inactive | inactive | inactive | –
20 | O=C(c1ccc(F)cc1)C1CCN(CCn2c(=O)[nH]c3ccccc3c2=O)CC1 [KETANSERIN] | – | – | – | – | – | – | – | hepatic extraction ratio at 0.75 h [20]: 0.765; hepatic extraction ratio at 0.75 h [21]: 0.697; hepatic extraction ratio at 0.75 h [22]: 0.693
21 | CC(C)(C)c1ccc(C(=O)NC(=S)Nc2ccc(NC(=O)CCCCCCN)cc2)cc1 | > 44 µM | – | – | – | – | – | – | –
22 | CC(C)(C)c1ccc(C(=O)NC(=S)Nc2ccc(NC(=O)CCCCCCCCCN)cc2)cc1 | 0.298 µM | < 6.29 µM | 21.1 | – | – | – | – | –
23 | CC(C)(C)OC(=O)N[C@@H](Cc1c[nH]c2ccccc12)C(=O)NCCCCCCCCCCCC(=O)Nc1ccc(NC(=S)NC(=O)c2ccc(C(C)(C)C)cc2)cc1 | 0.974 µM | > 100 µM | > 103 | inactive | inactive | inactive | inactive | –
24 | CC(C)(C)OC(=O)N[C@@H](Cc1c[nH]c2ccccc12)C(=O)NCCCCCC(=O)Nc1ccc(NC(=S)NC(=O)c2ccc(C(C)(C)C)cc2)cc1 | 0.344 µM | > 100 µM | > 291 | inactive | inactive | inactive | inactive | –
